Measured values as given in patent US20160257697A1, “THIOPHENE-SUBSTITUTED TETRACYCLIC COMPOUNDS AND METHODS OFUSE THEREOF FOR THE TREATMENT OF VIRAL DISEASES” (priority 2013, published 2016).
Read-outs that look alike come from different tables or passages of the source.

Assays:
Assay in all cases: microbe, parasite or virus in culture
Type in all cases: cell-based, Hepatitis C virus (HCV)
Details in all cases: Replicon Assay A
[1] = tested on: HCV replicon 1AY93H
In short: (§1)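 Read-out is replicon RNA per cell by real-time RT-PCR, normalised to cyclophilin mRNA amplified in the same well. Cells were exposed to compound for 3 days at 2000 cells/well in medium with 5% fetal bovine serum and 0.5% DMSO.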

[2] = tested on: HCV replicon 1A
In short: as §1

[3] = tested on: HCV replicon 2B
In short: as §1

[4] = read-out: 1A Y93H IC50, replicon 1AY93H
[5] = Hepatitis C virus, read-out: 1A Y93H IC50 (nM), replicon 1AY93H
[6] = Hepatitis C virus, read-out: 2B IC50 (nM), replicon 2B
[7] = read-out: 1A Y93H IC50, HCV replicon 1A Y93H
[8] = read-out: 2B IC50, HCV replicon 2B
[9] = Hepatitis C virus, read-out: 1A Y93H IC50, HCV replicon 1A Y93H

Row | Compound | IC50 [1, 4] | IC50 ([2]; replicon 1A) | IC50 ([3]; read-out: 2B IC50, replicon 2B) | IC50 [1, 7] | IC50 ([2]; HCV replicon 1A) | IC50 [3, 8] | further results
1 | COC(=O)NC(C(=O)N1CCC[C@H]1c1ncc(-c2ccc3c(c2)cc2n3C(c3cc(C)c(C)s3)Oc3cc(-c4cnc([C@@H]5CCCN5C(=O)[C@@H](NC(=O)OC)C5CCOCC5)[nH]4)cc(F)c3-2)[nH]1)C(C)(C)F (single isomer, unassigned) [Compound 131] | 3.83 nM | 0.0078 nM | 9.78 nM | – | – | – | –
2 | COCCc1ccc(C2Oc3cc(-c4cnc([C@@H]5CCCN5C(=O)[C@@H](NC(=O)OC)C(C)C)[nH]4)cc(F)c3-c3cc4cc(-c5cnc([C@@H]6CCCN6C(=O)[C@@H](NC(=O)OC)C(C)C)[nH]5)ccc4n32)s1 (single isomer, unassigned) [Compound 81] | – | – | – | – | – | – | IC50 [1, 5]: 0.41 nM; IC50 ([2]; Hepatitis C virus, replicon 1A): 0.0014 nM; IC50 [3, 6]: 1.32 nM
3 | CC[C@@H]1CC(C(NC(=O)OC)C(=O)N2CCC[C@H]2c2ncc(-c3ccc4c(c3)cc3n4C(c4ccc(C5CC5)s4)Oc4cc(-c5cnc([C@@H]6CCCN6C(=O)[C@@H](NC(=O)OC)C(C)C)[nH]5)cc(F)c4-3)[nH]2)C[C@H](CC)O1 (single isomer, unassigned) [Compound 287] | 0.074 nM | 0.0082 nM | 0.49 nM | – | – | – | –
4 | COC(=O)NC(C(=O)N1CCC[C@H]1c1ncc(-c2ccc3c(c2)cc2n3C(c3ccc(C(C)C)s3)Oc3cc(-c4cnc([C@@H]5CCCN5C(=O)[C@@H](NC(=O)OC)C(C)C)[nH]4)cc(F)c3-2)[nH]1)C1CCOC(C)(C)C1 (single isomer, unassigned) [Compound 243] | 0.87 nM | 0.0015 nM | 6.81 nM | – | – | – | –
5 | COC(=O)NC(C(=O)N1CCC[C@H]1c1ncc(-c2ccc3c(c2)cc2n3C(c3ccc(C4CC4)s3)Oc3cc(-c4cnc([C@@H]5CCCN5C(=O)[C@@H](NC(=O)OC)C(C)C)[nH]4)cc(F)c3-2)[nH]1)C1CCO[C@H](C)C1 (single isomer, unassigned) [Compound 140] | 5.51 nM | 0.0407 nM | 8.69 nM | – | – | – | –
6 | CCc1ccc(C2Oc3cc(-c4cnc([C@@H]5CCCN5C(=O)[C@@H](NC(=O)OC)C(C)C)[nH]4)cc(F)c3-c3cc4cc(-c5cnc([C@@H]6CCCN6C(=O)C(NC(=O)OC)C6C[C@@H](C)O[C@@H](C)C6)[nH]5)ccc4n32)s1 (single isomer, unassigned) [Compound 142] | 0.25 nM | 0.002 nM | 0.48 nM | – | – | – | –
7 | COC(=O)NC(C(=O)N1CCC[C@H]1c1ncc(-c2ccc3c(c2)cc2n3C(c3ccc(C4CC4)s3)Oc3cc(-c4cnc([C@@H]5CCCN5C(=O)[C@@H](NC(=O)OC)C(C)C)[nH]4)cc(F)c3-2)[nH]1)C1CCO[C@@H](C)C1 (single isomer, unassigned) [Compound 354] | 0.38 nM | – | 0.602 nM | – | – | – | IC50 ([2]; Hepatitis C virus, replicon 1A): 0.002 nM
8 | COC(=O)NC(C(=O)N1CCC[C@H]1c1ncc(-c2ccc3c(c2)cc2n3C(c3ccc(C(C)C)s3)Oc3cc(-c4cnc([C@@H]5CCCN5C(=O)[C@@H](NC(=O)OC)C(C)C)[nH]4)cc(F)c3-2)[nH]1)C1C[C@@H](C)O[C@@H](C)C1 (single isomer, unassigned) [Compound 235] | 3.87 nM | 0.0013 nM | 10.2 nM | – | – | – | –
9 | COC(=O)N[C@H](C(=O)N1CCC[C@H]1c1ncc(-c2cc(F)c3c(c2)OC(c2scc4c2OCCO4)n2c-3cc3cc(-c4cnc([C@@H]5C[C@H](F)CN5C(=O)[C@@H](NC(=O)OC)C(C)C)[nH]4)ccc32)[nH]1)C(C)C (single isomer, unassigned) [Compound 527] | – | – | – | 3.06 nM | 0.0155 nM | 33.3 nM | –
10 | COC(=O)NC(C(=O)N1[C@@H]2C[C@@H]2C[C@H]1c1ncc(-c2ccc3c(c2)cc2n3C(c3cc4ccccc4s3)Oc3cc(-c4cnc([C@@H]5CCCN5C(=O)[C@@H](NC(=O)OC)C(C)C)[nH]4)cc(F)c3-2)[nH]1)C1C[C@@H](C)O[C@@H](C)C1 (single isomer, unassigned) [Compound 648] | – | – | – | – | 0.0036 nM | 1.7 nM | IC50 [1, 9]: 2.04 nM
11 | COC(=O)N[C@H](C(=O)N1CCC[C@H]1c1ncc(-c2cc(F)c3c(c2)OC(c2cc4nccnc4s2)n2c-3cc3cc(-c4cnc([C@@H]5CCCN5C(=O)[C@@H](NC(=O)OC)C(C)C)[nH]4)ccc32)[nH]1)C(C)C (single isomer, unassigned) [Compound 47] | 1.54 nM | – | 0.77 nM | – | – | – | IC50 ([2]; Hepatitis C virus, replicon 1A): 0.0016 nM
12 | COC(=O)NC(C(=O)N1CCC[C@H]1c1ncc(-c2cc(F)c3c(c2)OC(c2ccc(C4CC4)s2)n2c-3cc3cc(-c4cnc([C@@H]5C[C@H]6C[C@H]6N5C(=O)[C@@H](NC(=O)OC)C(C)C)[nH]4)ccc32)[nH]1)C(C)(C)F (single isomer, unassigned) [Compound 98] | 0.06 nM | 0.0011 nM | – | – | – | – | IC50 [3, 6]: 2.16 nM
13 | CCc1ccc(C2Oc3cc(-c4cnc([C@@H]5CCCN5C(=O)C(NC(=O)OC)C5C[C@@H](C)O[C@@H](C)C5)[nH]4)cc(F)c3-c3cc4cc(-c5cnc([C@@H]6CCCN6C(=O)[C@@H](NC(=O)OC)C(C)C)[nH]5)ccc4n32)s1 (single isomer, unassigned) [Compound 157] | 2.32 nM | 0.0021 nM | 2.8 nM | – | – | – | –
14 | COC(=O)N[C@H](C(=O)N1CCC[C@H]1c1ncc(-c2ccc3c(c2)OC(c2cc4ccccc4s2)n2c-3cc3cc(-c4cnc([C@@H]5C[C@H]6C[C@H]6N5C(=O)[C@@H](NC(=O)OC)C(C)C)[nH]4)ccc32)[nH]1)C(C)C (single isomer, unassigned) [Compound 608] | – | – | – | 0.0529 nM | 0.0035 nM | 0.031 nM | –
15 | COC(=O)N[C@H](C(=O)N1CCC[C@H]1c1nc(-c2ccc3c(c2)OC(c2ccc(Cl)s2)n2c-3cc3cc(-c4c[nH]c([C@@H]5CCCN5C(=O)[C@@H](NC(=O)OC)C5CCOCC5)n4)ccc32)c[nH]1)C1CCOCC1 (mixture of isomers) [Compound 727] | – | – | – | – | – | – | IC50 [1, 9]: 0.056 nM; IC50 ([2]; Hepatitis C virus, HCV replicon 1A): 0.024 nM; IC50 ([3]; Hepatitis C virus, read-out: 2B IC50, HCV replicon 2B): 0.027 nM
16 | COC(=O)N[C@H](C(=O)N1CCC[C@H]1c1ncc(-c2cc(F)c3c(c2)OC(c2cc(C)c(C)s2)n2c-3cc3cc(-c4cnc([C@@H]5C[C@@H](F)CN5C(=O)[C@@H](NC(=O)OC)C(C)C)[nH]4)ccc32)[nH]1)C(C)C (single isomer, unassigned) [Compound 516] | – | – | – | 0.0114 nM | 0.00191 nM | 5.2 nM | –
17 | COC(=O)NC(C(=O)N1CCC[C@H]1c1ncc(-c2ccc3c(c2)cc2n3C(c3ccc(C4CC4)s3)Oc3cc(-c4cnc([C@@H]5C[C@@H](F)CN5C(=O)[C@@H](NC(=O)OC)C(C)C)[nH]4)cc(F)c3-2)[nH]1)C(C)(C)F (single isomer, unassigned) [Compound 115] | 0.05 nM | 0.0011 nM | 9.84 nM | – | – | – | –
18 | COC(=O)N[C@H](C(=O)N1CCC[C@H]1c1ncc(-c2cc(F)c3c(c2)OC(c2cc4c(s2)CCCO4)n2c-3cc3cc(-c4cnc([C@@H]5CCCN5C(=O)[C@@H](NC(=O)OC)C5CCOC(C)(C)C5)[nH]4)ccc32)[nH]1)C(C)C (single isomer, unassigned) [Compound 411] | – | – | – | 0.78 nM | 0.001 nM | 0.2 nM | –
19 | COC(=O)N[C@H](C(=O)N1CCC[C@H]1c1ncc(-c2cc(F)c3c(c2)OC(c2ccc(C4CC4)s2)n2c-3cc3cc(-c4cnc([C@@H]5CCCN5C(=O)[C@@H](NC(=O)OC)C5CCOCC5)[nH]4)ccc32)[nH]1)C(C)C (single isomer, unassigned) [Compound 126] | – | – | – | – | – | – | IC50 [1, 5]: 0.27 nM; IC50 ([2]; Hepatitis C virus, replicon 1A): 0.0019 nM; IC50 [3, 6]: 0.21 nM
20 | COCc1ccc(C2Oc3cc(-c4cnc([C@@H]5CCCN5C(=O)[C@@H](NC(=O)OC)C(C)C)[nH]4)cc(F)c3-c3cc4cc(-c5cnc([C@@H]6CCCN6C(=O)[C@@H](NC(=O)OC)[C@@H]6C[C@@H](C)O[C@@H](C)C6)[nH]5)ccc4n32)s1 (single isomer, unassigned) [Compound 533] | – | – | – | 0.0913 nM | 0.00373 nM | 0.429 nM | –
21 | COC(=O)N[C@H](C(=O)N1C2CC2C[C@H]1c1ncc(-c2cc(F)c3c(c2)OC(c2ccc(C4CC4)s2)n2c-3cc3cc(-c4cnc([C@@H]5CCCN5C(=O)[C@@H](NC(=O)OC)C5C[C@@H](C)O[C@@H](C)C5)[nH]4)ccc32)[nH]1)C(C)C (single isomer, unassigned) [Compound 556] | – | – | – | 0.251 nM | 0.0512 nM | 0.976 nM | –
22 | COC(=O)N[C@H](C(=O)N1CCC[C@H]1c1ncc(-c2cc(F)c3c(c2)OC(c2ccc(C4(N)CC4)s2)n2c-3cc3cc(-c4cnc([C@@H]5CCCN5C(=O)[C@@H](NC(=O)OC)C(C)C)[nH]4)ccc32)[nH]1)C(C)C (mixture of isomers) [Compound 57] | – | – | – | – | – | – | IC50 [1, 5]: 0.37 nM; IC50 ([2]; Hepatitis C virus, replicon 1A): 0.0114 nM; IC50 [3, 6]: 2.79 nM
23 | COC(=O)NC(C(=O)N1[C@@H]2C[C@@H]2C[C@H]1c1ncc(-c2ccc3c(c2)cc2n3C(c3ccc(C4CC4)s3)Oc3cc(-c4cnc([C@@H]5CCCN5C(=O)[C@@H](NC(=O)OC)C(C)C)[nH]4)cc(F)c3-2)[nH]1)C1CCOC(C)(C)C1 (single isomer, unassigned) [Compound 278] | 0.161 nM | 0.0018 nM | 0.3 nM | – | – | – | –
24 | COC(=O)NC(C(=O)N1CCC[C@H]1c1ncc(-c2ccc3c(c2)cc2n3C(c3cc4ccccc4s3)Oc3cc(-c4cnc([C@@H]5CCCN5C(=O)[C@@H](NC(=O)OC)C(C)C)[nH]4)cc(F)c3-2)[nH]1)C1C[C@@H](C)O[C@@H](C)C1 (single isomer, unassigned) [Compound 642] | – | – | – | 0.066 nM | 0.0019 nM | 0.199 nM | –
25 | COC(=O)N[C@H](C(=O)N1CCC[C@H]1c1cnc(-c2ccc3c(c2)cc2n3C(c3cc4ccccc4s3)Oc3cc(-c4cnc([C@@H]5CCCN5C(=O)[C@@H](NC(=O)OC)C5CCOCC5)[nH]4)ccc3-2)[nH]1)C1CCOCC1 (single isomer, unassigned) [Compound 810] | – | – | – | 0.018 nM | 0.004 nM | 0.005 nM | –
